# Measurements reported in US20260137698A1, “CYCLIN-DEPENDENT KINASE 7 INHIBITORS” (JOINT STOCK COMPANY «BIOCAD», priority 2022, published 2026).
# pIC50: −log10 of the molar value. Where two headings read alike, the source gives them in different places.
# Columns and labels:
# [1] = molecular target: CDK2/Cyclin A (Homo sapiens, UniProt P24941); experiment: Inhibition of CDK2/Cyclin A kinase activity (ADP-Glo); assay type: biochemical
# Outline: (§1)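 ADP-Glo luminescence quantified ATP consumption after a 40-60 minute, 25° C. reaction with ATP plus CDKtide, Histone H1 or PDKtide, following a 10-minute compound–kinase preincubation in DTT-supplemented kinase buffer A. Compounds spanned 11 concentrations from 50 μM in 4-fold dilutions; IC50 fitted to a four-parameter model.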
# [2] = Passive membrane permeability through PAMPA artificial membrane, pH 7.4; assay type: in vitro ADME; conditions: pH 7.4, 10 μmol, 20 hours at room temperature, mean of multiple measurements, read-out: PAMPA passive permeability Pe
# Procedure: Passive membrane permeability of the compounds described in the present invention was determined using the PAMPA (parallel artificial membrane permeability assay) model at pH 7.4.
# We used a 96-well plate (Corning® BioCoat® Pre-coated PAMPA Plate System, order no. 353015), composed of acceptor and donor parts with cell membrane-modeling PVDF filter pre-impregnated with a lecithin-phospholipid bilayer. The substance (at a concentration of 10 μmol) in a 0.01 M phosphate buffer with pH 7.4 was introduced into a donor well of the plate, and pure buffer was introduced into an acceptor well; afterwards, the both parts were combined and incubated for 20 hours at room temperature so that the compound was redistributed between the two wells and the membrane. Verapamil (USP, USA, order no. 1711202) and propranolol (MCE LLC, USA, cat. no. HY-B0573/CS-2680) were used as control compounds with high and medium permeability. Samples were analyzed by reversed-phase HPLC with UV detection (Agilent 1260 chromatograph with UV detector) by determining their peak areas in the donor and acceptor wells.
# Permeability (Pe, cm/s) and retention factor (R, %) in the lipid bilayer were calculated using the formula:
# [formula] [formula] • Co is donor-well concentration of the substance at the initial moment of time t (μM); • CA (t) is acceptor-well concentration of the substance at time t (μM); • Vd is donor-well volume (0.3 ml); • Va is acceptor-well volume (0.15 ml).
# [formula] • A is filter area (0.3 cm^2); • t is incubation time (72000 s);
# [3] = molecular target: CDK7/Cyclin H/MNAT1 (Homo sapiens, UniProt P50613); experiment: Inhibition of CDK7/Cyclin H/MNAT1 kinase activity (ADP-Glo); assay type: biochemical
# Outline: as §1
# [4] = tested on: MDA-MB-468 (triple negative breast cancer); experiment: Antiproliferative assay on MDA-MB-468 cells (AlamarBlue, 96 h); assay type: cell-based; conditions: Homo sapiens, mean value from several measurements
# [5] = General cytotoxicity on primary differentiated HepaRG cells (72 h); assay type: cell-based; conditions: human, general toxicity, mean value from several measurements
# Outline: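 Test compounds spanning 200 μM to 0.2 nM were incubated for 72 hours with primary differentiated HepaRG cells. Cells had been kept one week in supplemented hepatic medium and seeded the night before at 25×10^3 per well, and viability was then measured.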
# [6] = molecular target: CDK9/Cyclin K (Homo sapiens, UniProt P50750); experiment: Inhibition of CDK9/Cyclin K kinase activity (ADP-Glo); assay type: biochemical
# Outline: as §1
# [7] = tested on: NCl-H82 (small cell lung cancer); experiment: Antiproliferative assay on NCl-H82 cells (AlamarBlue, 120 h); assay type: cell-based; conditions: mean value from several measurements
# Procedure: The antiproliferative activity of CDK7 inhibitors according to the present invention was evaluated in a cell test using continuous cell cultures: MDA-MB-468 (triple negative breast cancer, ATCC® HTB-132™) and NCl-H82 (small cell lung cancer, ATCC® HTB-175™) using a viable AlamarBlue dye (Thermo Fisher Scientific Inc, order no. DAL1100). The cells were grown in DMEM (PanEco, order no. C330π) and RPMI-1640 (PanEco, order no. C330π), respectively. The basal growth medium was enriched with L-glutamine at a concentration of 2 mM (PanEco, order no. Φ032) and 10% fetal bovine serum (Gibco, order no. 16140-071). The night before measurement, MDA-MB-468 adherent cells were detached from plastic with a solution of trypsin-EDTA (PanEco, order no. Π039π), the solution was then inactivated by a DMEM complete medium, centrifuged at 1000 RPM (Eppendorf, 5804 R), a suspension of cells was prepared in a DMEM complete medium, introduced into 96-well culture plates (Corning Inc, order no. 3599) at 8×10^3 cells in 100 μl of medium per well. The next day, test compounds were dissolved in DMSO and diluted with a DMEM complete medium to a final concentration ranging from 50 μM to 10 pM. Diluted compounds in a volume of 50 μl were introduced into the plate wells with cells in triplicates (the final concentration of DMSO was no more than 1%) and incubated at 37° C. in an incubator with 5% CO2 for 96 hours. NCl-H82 suspension cell line was prepared on the day of the analysis. 10×10^3 cells in 100 μl of an RPMI-1640 complete medium were added to each well of a 96-well plate. The procedure for sample dilution is as described above. Cells with test compounds were incubated at 37° C. in an incubator with 5% CO2 for 120 hours. Following incubation, […] of AlamarBlue reagent (Thermo Fisher Scientific Inc., order no. DAL1100) was added to the wells, the contents of the plates were stirred in an orbital shaker (Biosan, Latvia), then further incubated for 5.5-6 hours at 37° C. in an incubator with 5% CO2. The number of viable cells was detected using the Infinite M200Pro microplate spectrophotometer (Tecan Group Ltd, Switzerland) by way of measuring a fluorescent signal at an excitation wavelength (λEx) of 540 nm and an emission wavelength (λEm) of 590 nm.
# IC50 value was calculated using the Magellan software (Tecan Group Ltd, Switzerland) by approximating experimental points by four-parameter model with the optimization by Levenberg-Marquardt: […]
# [8] = mean value from several measurements, read-out: IC50 CDK2/Cyclin A
# [9] = mean value from several measurements, read-out: IC50 CDK7/Cyclin H/MNAT
# [10] = mean value from several measurements, read-out: IC50 CDK9/Cyclin K
# [11] = mean of multiple measurement series, ATP 50 μM, read-out: CDK2/Cyclin A IC50
# [12] = mean of multiple measurement series, ATP 10 μM, read-out: CDK7/Cyclin H/MNAT1 IC50
# [13] = mean of multiple measurement series, ATP 50 μM, read-out: CDK9/Cyclin K IC50
# Chain of CDK9/Cyclin K (P50750 whole entry): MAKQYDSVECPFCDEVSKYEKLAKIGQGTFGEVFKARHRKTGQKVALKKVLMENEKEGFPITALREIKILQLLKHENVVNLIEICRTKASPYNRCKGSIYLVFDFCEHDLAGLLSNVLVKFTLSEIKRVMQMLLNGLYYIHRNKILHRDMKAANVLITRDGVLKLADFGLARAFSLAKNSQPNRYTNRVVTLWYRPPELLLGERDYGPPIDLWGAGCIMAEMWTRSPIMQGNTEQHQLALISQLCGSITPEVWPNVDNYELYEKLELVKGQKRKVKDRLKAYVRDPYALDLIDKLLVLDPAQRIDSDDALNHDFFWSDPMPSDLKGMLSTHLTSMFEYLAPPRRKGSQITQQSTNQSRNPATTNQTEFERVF
# Chain of CDK9/Cyclin K (O75909 whole entry partner): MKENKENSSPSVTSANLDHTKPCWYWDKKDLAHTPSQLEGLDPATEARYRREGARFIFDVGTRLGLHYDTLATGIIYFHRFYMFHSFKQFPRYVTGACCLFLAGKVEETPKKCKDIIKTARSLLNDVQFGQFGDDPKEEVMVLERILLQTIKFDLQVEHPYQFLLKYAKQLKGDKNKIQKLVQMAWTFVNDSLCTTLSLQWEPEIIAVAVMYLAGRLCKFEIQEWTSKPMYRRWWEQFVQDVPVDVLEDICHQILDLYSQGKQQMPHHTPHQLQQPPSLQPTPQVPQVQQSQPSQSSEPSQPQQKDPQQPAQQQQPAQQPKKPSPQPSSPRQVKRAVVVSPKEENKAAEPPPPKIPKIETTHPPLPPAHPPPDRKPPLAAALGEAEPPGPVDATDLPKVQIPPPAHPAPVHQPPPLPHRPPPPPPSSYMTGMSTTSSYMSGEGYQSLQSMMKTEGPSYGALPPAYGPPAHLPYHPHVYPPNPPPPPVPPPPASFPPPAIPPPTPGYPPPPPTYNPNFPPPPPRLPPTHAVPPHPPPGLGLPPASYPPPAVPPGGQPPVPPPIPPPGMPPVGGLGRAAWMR
# Chain of CDK7/Cyclin H/MNAT1 (P50613 whole entry): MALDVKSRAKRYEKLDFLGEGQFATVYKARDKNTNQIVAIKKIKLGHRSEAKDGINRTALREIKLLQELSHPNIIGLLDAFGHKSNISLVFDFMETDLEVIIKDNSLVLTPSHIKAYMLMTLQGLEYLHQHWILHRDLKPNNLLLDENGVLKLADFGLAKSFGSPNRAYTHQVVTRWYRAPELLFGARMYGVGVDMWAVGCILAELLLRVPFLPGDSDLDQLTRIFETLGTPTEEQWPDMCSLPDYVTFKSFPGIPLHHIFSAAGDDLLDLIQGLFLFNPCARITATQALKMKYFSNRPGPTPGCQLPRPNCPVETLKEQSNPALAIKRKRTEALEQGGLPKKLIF
# Chain of CDK7/Cyclin H/MNAT1 (P51946 whole entry partner): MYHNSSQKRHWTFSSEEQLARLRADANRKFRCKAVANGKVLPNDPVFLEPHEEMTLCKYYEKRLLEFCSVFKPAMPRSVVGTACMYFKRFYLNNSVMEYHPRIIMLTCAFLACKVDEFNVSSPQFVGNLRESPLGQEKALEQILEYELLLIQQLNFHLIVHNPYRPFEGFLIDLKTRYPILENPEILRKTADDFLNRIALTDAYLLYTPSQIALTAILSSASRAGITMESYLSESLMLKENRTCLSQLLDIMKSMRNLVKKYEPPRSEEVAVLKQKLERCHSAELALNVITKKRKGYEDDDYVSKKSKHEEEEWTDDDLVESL
# Chain of CDK7/Cyclin H/MNAT1 (P51948 whole entry partner): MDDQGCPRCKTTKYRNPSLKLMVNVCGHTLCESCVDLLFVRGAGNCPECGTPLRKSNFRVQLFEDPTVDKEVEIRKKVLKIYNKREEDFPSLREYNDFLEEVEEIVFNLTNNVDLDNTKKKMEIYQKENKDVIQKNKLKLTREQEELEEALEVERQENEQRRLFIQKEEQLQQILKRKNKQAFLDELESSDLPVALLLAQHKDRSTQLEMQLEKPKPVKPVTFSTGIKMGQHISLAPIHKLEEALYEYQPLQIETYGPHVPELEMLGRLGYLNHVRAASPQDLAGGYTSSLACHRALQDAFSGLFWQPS
SMILES,"pIC50 [1, 8]","Papp at 20 h, 10 μmol [2]","pIC50 [3, 9]",pIC50 [4],CC50 at 72 h [5],"pIC50 [6, 10]",pIC50 [7],"pIC50 [1, 11]","pIC50 [3, 12]","pIC50 [6, 13]"
"Nc1ccccc1Oc1nc(N[C@H]2CCCNC2)ncc1C(F)(F)F [CDK7_548, 4-(2-aminophenoxy)-N-[(3S)-piperidin-3-yl]-5-(trifluoromethyl) pyrimidin-2-amine]",< 6.70,1 to 5 ×10⁻⁶ cm/s,7.30 to 8.30,7.00 to 8.00,0.5 to 2 µM,7.30 to 8.30,,,,
"CP(C)(=O)c1ccccc1Nc1nc(N[C@H]2CCCNC2)ncc1C(F)(F)F [CDK7_735, N4-[2-(dimethylphos-phoryl)phenyl]-N2-[(3S)-piperidin-3-yl]-5-(trifluoromethyl) pyrimidine-2,4-diamine]",< 6.70,< 1 ×10⁻⁶ cm/s,> 8.30,6.00 to 7.00,> 2 µM,7.30 to 8.30,,,,
"Cn1cc(NC(=O)c2cc(-c3nc(N[C@H]4CCCNC4)ncc3C(F)(F)F)c[nH]2)cn1 [CDK7_835, N-(1-methyl-1H-pyrazol-4-yl)-4-(2-{[(3S)-piperidin-3-yl]amino}-5-(trifluoromethyl)pyrimidin-4-yl)-1H-pyrrole-2-carboxamide]",< 6.70,< 1 ×10⁻⁶ cm/s,7.30 to 8.30,6.00 to 7.00,> 2 µM,7.30 to 8.30,,,,
"O=C(Nc1ccc(N2CCOCC2)cc1)c1cc(-c2nc(N[C@H]3CCCNC3)ncc2C(F)(F)F)c[nH]1 [CDK7_838, N-[4-(morpholin-4-yl)phenyl]-4-(2-{[(3S)-piperidin-3-yl]amino}-5-(trifluoromethyl)pyrimidin-4-yl)-1H-pyrrole-2-carboxamide]",< 6.70,,7.30 to 8.30,6.00 to 7.00,0.5 to 2 µM,6.70 to 7.30,6.00 to 7.00,,,
"Cc1ccc(Nc2nc(N[C@H]3CCCNC3)ncc2C(F)(F)F)c(P(C)(C)=O)c1 [CDK7_904, N4-[2-(dimethylphos-phoryl)-4-methylphenyl]-N2-[(3S)-piperidin-3-yl]-5-(trifluoromethyl) pyrimidine-2,4-diamine]",< 6.70,< 1 ×10⁻⁶ cm/s,> 8.30,6.00 to 7.00,> 2 µM,7.30 to 8.30,,,,
"CN1Cc2c(-c3nc(N[C@H]4CCCNC4)ncc3C(F)(F)F)c[nH]c2C1=O [CDK7_944, 5-methyl-3-(2-{[(3S)-piperidin-3-yl]amino}-5-(trifluoromethyl)pyrimidin-4-yl)-1H,4H,5H,6H-pyrrolo[2,3-c]pyrrol-6-one]",< 6.70,< 1 ×10⁻⁶ cm/s,> 8.30,> 8.00,< 0.1 µM,7.30 to 8.30,,,,
"O=C(NC1CC1)c1cc(-c2nc(N[C@H]3CCCNC3)ncc2C(F)(F)F)c[nH]1 [CDK7_951, N-cyclopropyl-4-(2-{[(3S)-piperidin-3-yl]amino}-5-(trifluoromethyl)pyrimidin-4-yl)-1H-pyrrole-2-carboxamide]",< 6.70,< 1 ×10⁻⁶ cm/s,> 8.30,7.00 to 8.00,0.5 to 2 µM,7.30 to 8.30,,,,
"CCOC(=O)c1cc(-c2nc(N[C@H]3CCCNC3)ncc2C(F)(F)F)c[nH]1 [CDK7_1020, ethyl 4-(2-{[(3S)-piperidin-3-yl]amino}-5-(trifluoromethyl)py-rimidin-4-yl)-1H-pyrrole-2-carboxylate]",< 6.70,,> 8.30,7.00 to 8.00,> 2 µM,7.30 to 8.30,7.00 to 8.00,,,
"Cn1cc(-n2ccc3c(-c4nc(N[C@H]5CCCNC5)ncc4C(F)(F)F)c[nH]c3c2=O)ccc1=O [CDK7_1052, 1-methyl-5-[7-oxo-3-(2-{[(3S)-piperidin-3-yl]amino}-5-(trifluoromethyl)py-rimidin-4-yl)-1H,6H,7H-pyrrolo[2,3-c]pyridin-6-yl]-1,2-dihydropyridin-2-one]",< 6.70,,> 8.30,6.00 to 7.00,> 2 µM,< 6.70,6.00 to 7.00,4.91,> 8.30,6.32
"FC(F)(F)c1cnc(N[C@H]2CCCNC2)nc1-c1c[nH]c(-c2ncccn2)c1 [CDK7_1062, N-[(3S)-piperidin-3-yl]-4-[5-(pyrimidin-2-yl)-1H-pyrrol-3-yl]-5-(trifluoromethyl)py-rimidin-2-amine]",< 6.70,,> 8.30,7.00 to 8.00,0.1 to 0.5 µM,7.30 to 8.30,7.00 to 8.00,,,
"Cn1cc(-n2ccc3c(-c4nc(N[C@H]5CCC6(CC6)NC5)ncc4C(F)(F)F)c[nH]c3c2=O)cn1 [CDK7_1199, 3-(2-{[(6S)-4-azaspiro[2.5]octan-6-yl]amino}-5-(trifluoromethyl)py-rimidin-4-yl)-6-(1-methyl-1H-pyrazol-4-yl)-1H,6H,7H-pyrrolo[2,3-c]pyridin-7-one]",< 6.70,,> 8.30,> 8.00,,< 6.70,> 8.00,5.47,> 8.30,6.07
"Cc1nnc2n1CCCc1c(-c3nc(N[C@H]4CCCNC4)ncc3C(F)(F)F)c[nH]c1-2 [CDK7_1236, 4-{5-methyl-3,4,6,13-tetraazatricyclo[8.3.0.0^2,^6]trideca-1(10),2,4,11-tetraen-11-yl}-N-[(3S)-piperidin-3-yl]-5-(trifluoromethyl)py-rimidin-2-amine]",< 6.70,,> 8.30,7.00 to 8.00,> 2 µM,6.70 to 7.30,7.00 to 8.00,,,
"COCCN1CCCc2c(-c3nc(N[C@H]4CCC(C)(C)NC4)ncc3C(F)(F)F)c[nH]c2C1=O [CDK7_1268, 3-(2-{[(3S)-6,6-dimethylpiperidin-3-yl]amino}-5-(trifluoromethyl)py-rimidin-4-yl)-7-(2-methoxyethyl)-1H,4H,5H,6H,7H, 8H-pyrrolo[2,3-c]azepin-8-one]",< 6.70,,,7.00 to 8.00,> 2 µM,< 6.70,7.00 to 8.00,,,
